One experiment relates to cyclin D1. Description: Cyclin D1 protein levels by Western blot in C4HD cells. The settings on record: MPA treatment of C4HD cells. The experiment is classed as cell-based, mouse. On the procedure: (§1) Primary cultures of epithelial cells from C4HD tumors were performed as described (2). T47D cells were obtained from American Type Culture Collection and T47D-Y cells were a generous gift from Dr. K. Horwitz (Denver, Colo.). To evaluate the effects of the pharmacological inhibitors on MPA-induced proteins phosphorylation or cyclin D1 expression, cells were preincubated for 90 min with RU486, PP2, Tyrphostin AG825 or Jak inhibitor I before addition of MPA. Cell proliferation was evaluated by [3H]-thymidine incorporation assay and cell cycle distribution was analyzed by flow cytometry, as described (22).
(§2) Lysates were prepared from cells subjected to the different treatments and proteins were subjected to SDS-PAGE as previously described (21). Membranes were immunoblotted with the antibodies detailed in each experiment. When phospho(p)-protein antibodies were used, filters were reprobed with total protein antibodies. Signal intensities of pErbB-2, pStat3, pSrc, pPR, pJak1, and pJak2 bands were analyzed by densitometry and normalized to total protein bands. Similarly, signal intensities of PR, cyclin D1, Stat3, and ErbB-2 bands were normalized to actin or β tubulin bands. […] The NEPER Nuclear and Cytoplasmic Extraction Reagents technique (Pierce Biotechnology) was performed as per manufacturer's instructions. […]

A further experiment deals with cyclin D1 promoter. Description: Human cyclin D1 promoter luciferase reporter in T47D cells. It is filed as cell-based. The settings on record: MPA 24 h, versus cells untreated with MPA. An excerpt: The luciferase reporter plasmid downstream the cyclin D1 human promoter region (−1745 cyclin D1-luc), and constructs truncated at positions −963, −261, −141, were kindly provided by Dr. R. Pestell (Northwestern University Medical School, Chicago, Ill.). These constructs were generated by truncation of the 1745-bp length promoter in order to sequentially exclude 5′ regions of the promoter. The −963 cyclin D1-luc construct excludes one GAS site (−984), the −261 cyclin D1-luc excludes three GAS sites (−984, −568 and −475) and the −141 cyclin D1-luc excludes four GAS sites (−984, −568, −475 and −239). The empty vector pA3 Luc was also provided by Dr. R. Pestell. The luciferase reporter plasmid containing four copies of the m67 high-affinity binding site (p4×m67-tk-luc) and the pTATA-tk-Luc reporter lacking the m67 insertion were a gift from Dr J. Darnell (The Rockefeller University, New York, N.Y.). The Renilla luciferase expression plasmid RLCMV was obtained from Promega (Madison, Wis.). […] Triplicate samples were analyzed for each datum point. Differences between experimental groups were analyzed by ANOVA followed by Tukey test between groups.
(In general: Reporter assays use an easily measured gene product as a stand-in for the process of interest.)

The test system of another experiment is ErbB-2. As to the kind of experiment: ErbB-2 tyrosine phosphorylation by Western blot in C4HD cells. It is filed as cell-based, mouse. The conditions noted are these: MPA treatment of C4HD cells. On the procedure:
as §1, §2
For orientation: In western blotting, separated proteins are transferred to a membrane and probed.

A further experiment relates to Stat3. As to the kind of experiment: Stat3 phosphorylation and nuclear translocation in T47D cells. The settings on record: MPA treatment of T47D cells. The experiment is classed as cell-based, human. On the procedure:
Lysates were prepared from cells subjected to the different treatments and proteins were subjected to SDS-PAGE as previously described (21). Membranes were immunoblotted with the antibodies detailed in each experiment. When phospho(p)-protein antibodies were used, filters were reprobed with total protein antibodies. Signal intensities of pErbB-2, pStat3, pSrc, pPR, pJak1, and pJak2 bands were analyzed by densitometry and normalized to total protein bands. Similarly, signal intensities of PR, cyclin D1, Stat3, and ErbB-2 bands were normalized to actin or β tubulin bands. […] The NEPER Nuclear and Cytoplasmic Extraction Reagents technique (Pierce Biotechnology) was performed as per manufacturer's instructions. Nuclear association between ErbB-2 and Stat3 was studied by performing coimmunoprecipitation experiments using 200 μg of nuclear protein lysates as described (22).
Cells grown on glass coverslips were fixed and permeabilized in ice-cold methanol and were then blocked with PBS 1% BSA. ErbB-2 was localized using either a rabbit polyclonal (C-18) or a mouse monoclonal (F-11) ErbB-2 antibody (Santa Cruz Biotechnology) and Stat3 was detected using a mouse monoclonal antibody (124H6, Cell Signaling), followed by incubation with a goat anti-rabbit IgG-Alexa 488 (Molecular Probes, Eugene, Oreg.) secondary antibody for ErbB-2 (C-18) and with a rhodamine conjugated goat anti-mouse secondary antibody (Jackson ImmunoResearch Laboratories, West Grove, Pa.) for both ErbB2 (F-11) and Stat3. Negative controls were carried out using PBS instead of primary antibodies, or 5× competitive peptide (Santa Cruz Biotechnology) when ErbB-2 (C-18) was used. When cells were transfected with hErbB-2ΔNLS, green fluorescent protein from this expression vector was visualized by direct fluorescence imaging. […] FIGS. 2A, 3B and C, illustrate a few cells representative of the ones examined. Cells were analyzed using a Nikon Eclipse E800 confocal laser microscopy system (22).

Entries after “also recorded” stand apart in the source; their conditions may differ.

On to `CC(=O)O[C@]1(C(C)=O)CC[C@H]2[C@@H]3C[C@H](C)C4=CC(=O)CC[C@]4(C)[C@H]3CC[C@@]21C` [MPA, Medroxyprogesterone acetate], for which the “cyclin D1 protein levels” value with cyclin D1 is recorded as “significant increase”. The “increase in cyclin D1 promoter activity” value in the experiment with cyclin D1 promoter was 3 fold. The “ErbB-2 phosphorylation at Tyr 1272 and Tyr 927” value in the experiment on ErbB-2 is recorded as “induces a rapid phosphorylation”. For the same compound, in the experiment on Stat3 (30 and 60 min), the Stat3 nuclear translocation result is “induced nuclear translocation of Stat3; also recorded: present at the nuclear compartment and strongly phosphorylated at Tyr 705”. Moreover, in the experiment on Stat3 (30 min, confocal), the “nuclear colocalization of ErbB-2 and Stat3” value is recorded as “strong nuclear colocalization”.
